# Assay results taken from article PMC13266999, “Designing Antibiotics with Inherent Resistance to Efflux as a Strategy to Revive Discovery against Multidrug-Resistant Pathogens” (Journal of Medicinal Chemistry, 2026).
# Where “and” joins values, the source holds several entries; their conditions need not be identical. Equal values may be shown once. Read-outs that look alike come from different tables or passages of the source.
# What was measured:
# [1] = system: S. agalactiae; test: MIC (microbroth dilution); format: cell-based, Streptococcus agalactiae; conditions: for MIC: Streptococcus agalactiae
# Method: All bacteria were maintained on tryptic soy agar (TSA), except Streptococcus spp., which were maintained on Columbia agar plates containing 5% horse blood. All bacterial assays were carried out in tryptic soy broth (TSB), except for Streptococcus spp. which were grown in cation-adjusted Mueller Hinton broth containing 2.5% lysed horse blood. Bacteria were grown to stationary phase in liquid culture overnight, with shaking at 200 rpm, before being back diluted to the relevant starting concentration for each assay below. MICs were measured by the microbroth dilution method. […] Absorbance at OD600 was read on a CLARIOstar spectrophotometer (BMG Labtech) and the MIC was defined as the minimum concentration of compound where no visible growth was detected. The compounds were prepared as a DMSO stock and equivalent concentrations of DMSO had no effect on bacterial growth. MICs were also performed in the presence of the outer membrane permeator, polymyxin b nonapeptide (PMBN) following the same MIC method but with the following variation. The 2-fold dilution series of compound was prepared as above, then 50 μL of PMBN at a final concentration of 30 μg/mL was added to relevant wells, while 50 μL/well of blank media was added to the remaining wells. Bacteria were then added at 50 μL/well for a starting concentration as above. Thirty μg/mL of PMBN had no effect on bacterial growth. The MICs were read and defined as above. All animal procedures were performed by the contract research organization Pharmacology Discovery Services Taiwan in accordance with the Guide for the Care and Use of Laboratory Animals. The procedures were approved by the Institutional Ethics Committee of Pharmacology Discovery Services Taiwan, Ltd. (approval no. AB127662), in compliance with animal welfare legislation in Taiwan.
# [2] = in vivo; conditions: male, mouse, po
# [3] = Maximum tolerated dose study; conditions: for B.W.: animals N 1-3;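 as to all read-outs here: male ICR mice given oral doses under a stepwise escalation scheme to find the highest tolerated dose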
# [4] = system: S. aureus SA-1199 WT and SA-1199B; test: Accumulation assay; format: cell-based; conditions: SA-1199B compared to SA-1199
# Method: Minor adjustments were made to the protocol previously described by Geddes and Hergenrother. After centrifugation in oil to remove excess compound, the pellets were dissolved in 200 μL of ultrapure sterile water and subjected to five freeze–thaw cycles. Each cycle consisted of 1 min in a dry ice and ethanol bath, followed by vortexing and 3 min in a heat block at 65 °C. Miles Misra viable counts were used to determine the number of colony-forming units (CFUs) for each replicate. These counts were performed for the 0.55 OD inoculum, postcompound incubation, solvent-only control, and lysates.
# A 20 μL sample was injected into an Onyx monolithic C18 column and run using a gradient method. The mobile phase began with 10% acetonitrile and 90% water, with the acetonitrile content increased to 90% over 7 min, maintained for 2 min, and then returned to 10%. The area under the curve was automatically calculated using Agilent ChemStation software to determine the level of accumulation within the bacterial cells. Finally, the data were analyzed using GraphPad Prism 10.4.1. Unpaired t test was conducted to evaluate the statistical significance of the level of efflux in the efflux mutant S. aureus 1199B strain compared to the wild-type S. aureus 1199 strain.
# [5] = system: Pseudomonas aeruginosa; test: MIC (microbroth dilution); format: cell-based
# Procedure, shortened: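 Broth microdilution MICs were run in tryptic soy broth, or for Streptococcus spp. in cation-adjusted Mueller Hinton broth with 2.5% lysed horse blood, using overnight stationary-phase cultures back-diluted. MIC was the lowest concentration with no visible growth, with OD600 also read. Some MICs included PMBN at 30 μg/mL final.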
# [6] = Murine thigh infection model; conditions: oral 50 mg/kg at 2, 8, and 14 h postinfection, at 26 h
# [7] = PO 100 mg/kg, 72 hrs after final dose, 100 mg/kg
# [8] = PO 100 mg/kg, Pre-dose, 100 mg/kg
# [9] = PO 200 mg/kg, 72 hrs after final dose, 200 mg/kg
# [10] = PO 200 mg/kg, Pre-dose, 200 mg/kg
# [11] = PO 400 mg/kg, 72 hrs after final dose, 400 mg/kg
# [12] = PO 400 mg/kg, Pre-dose, 400 mg/kg
smiles,measurement,setting,value
"Cc1cc(C)nc(N[C@@H]2CCN(c3c(F)cc4c(=O)c(C(=O)O)cn5c4c3OC[C@@H]5C)C2)n1 [Compound 50, (S)-10-((R)-3-((4,6-Dimethylpyrimidin-2-yl)amino)pyrrolidin-1-yl)-9-fluoro-3-methyl-7-oxo-2,3-dihydro-7H-[1,4]oxazino[2,3,4-ij]quinoline-6-carboxylic acid]",MIC,"[1]; 6175, read-out: MIC",0.06 µg/mL
same,MIC,"[1]; 8017, read-out: MIC",0.25 µg/mL
same,MIC,"[1]; 8181, read-out: MIC",0.06 µg/mL
same,MIC,[1]; 8183,0.125 µg/mL
same,MIC,"[1]; 10069, read-out: MIC",≤ 0.03 µg/mL
same,MIC,"[1]; 10182, read-out: MIC",0.06 µg/mL
same,MIC,[1]; 11080,0.125 µg/mL
same,MIC,"[1]; 83190, read-out: MIC",0.06 µg/mL
same,MIC,"[1]; 83740, read-out: MIC",0.06 µg/mL
same,MIC,[1]; 84115,0.125 µg/mL
same,MIC,"[1]; ATCC12386, ATCC 12386",0.25 µg/mL
same,MIC,"[1]; n = 10, read-out: modal MIC",0.06 µg/mL
same,MTD at 72 h,[2],≥ 400 mg/kg
same,Response (death/test),"[3]; PO 100 mg/kg, 1 hr after 1st dosing",0/3
same,Response (death/test),"[3]; PO 100 mg/kg, 1 hr after 2nd dosing",0/3
same,Response (death/test),"[3]; PO 100 mg/kg, 1 hr after 3rd dosing",0/3
same,Response (death/test),"[3]; PO 100 mg/kg, 2 hrs after 3rd dosing",0/3
same,Response (death/test),"[3]; PO 100 mg/kg, 6 hrs after 1st dosing",0/3
same,Response (death/test),"[3]; PO 100 mg/kg, 6 hrs after 2nd dosing",0/3
same,Response (death/test),"[3]; PO 100 mg/kg, 24 hrs after 3rd dosing",0/3
same,Response (death/test),"[3]; PO 100 mg/kg, 48 hrs after 3rd dosing",0/3
same,Response (death/test),"[3]; PO 100 mg/kg, 72 hrs after 3rd dosing",0/3
same,B.W.,[3]; [7],24 and 25
same,B.W.,[3]; [8],24 and 23
same,Response (death/test),"[3]; PO 200 mg/kg, 1 hr after 1st dosing",0/3
same,Response (death/test),"[3]; PO 200 mg/kg, 1 hr after 2nd dosing",0/3
same,Response (death/test),"[3]; PO 200 mg/kg, 1 hr after 3rd dosing",0/3
same,Response (death/test),"[3]; PO 200 mg/kg, 2 hrs after 3rd dosing",0/3
same,Response (death/test),"[3]; PO 200 mg/kg, 6 hrs after 1st dosing",0/3
same,Response (death/test),"[3]; PO 200 mg/kg, 6 hrs after 2nd dosing",0/3
same,Response (death/test),"[3]; PO 200 mg/kg, 24 hrs after 3rd dosing",0/3
same,Response (death/test),"[3]; PO 200 mg/kg, 48 hrs after 3rd dosing",0/3
same,Response (death/test),"[3]; PO 200 mg/kg, 72 hrs after 3rd dosing",0/3
same,B.W.,[3]; [9],25 and 28
same,B.W.,[3]; [10],23 and 24
same,Response (death/test),"[3]; PO 400 mg/kg, 1 hr after 1st dosing",0/3
same,Response (death/test),"[3]; PO 400 mg/kg, 1 hr after 2nd dosing",0/3
same,Response (death/test),"[3]; PO 400 mg/kg, 1 hr after 3rd dosing",0/3
same,Response (death/test),"[3]; PO 400 mg/kg, 2 hrs after 3rd dosing",0/3
same,Response (death/test),"[3]; PO 400 mg/kg, 6 hrs after 1st dosing",0/3
same,Response (death/test),"[3]; PO 400 mg/kg, 6 hrs after 2nd dosing",0/3
same,Response (death/test),"[3]; PO 400 mg/kg, 24 hrs after 3rd dosing",0/3
same,Response (death/test),"[3]; PO 400 mg/kg, 48 hrs after 3rd dosing",0/3
same,Response (death/test),"[3]; PO 400 mg/kg, 72 hrs after 3rd dosing",0/3
same,B.W.,[3]; [11],25 and 23
same,B.W.,[3]; [12],20 and 21
"C[C@H]1COc2c(N3CC[C@@H](Nc4ncccn4)C3)c(F)cc3c(=O)c(C(=O)O)cn1c23 [Compound 46, (S)-9-Fluoro-3-methyl-7-oxo-10-((R)-3-(pyrimidin-2-ylamino)pyrrolidin-1-yl)-2,3-dihydro-7H-[1,4]oxazino[2,3,4-ij]quinoline-6-carboxylic acid]",MIC,[1]; 6175,0.125 µg/mL
same,MIC,"[1]; 8017, read-out: MIC",0.5 µg/mL
same,MIC,[1]; 8181,0.125 µg/mL
same,MIC,[1]; 8183,0.125 µg/mL
same,MIC,"[1]; 10069, read-out: MIC",≤ 0.03 µg/mL
same,MIC,[1]; 10182,0.125 µg/mL
same,MIC,"[1]; 11080, read-out: MIC",0.25 µg/mL
same,MIC,[1]; 83190,0.125 µg/mL
same,MIC,[1]; 83740,0.125 µg/mL
same,MIC,[1]; 84115,0.125 to 0.5 µg/mL
same,MIC range,[1]; n = 10,0.06 to 0.5 µg/mL
same,level of accumulation,[4],no significant change in accumulation
same,MTD at 72 h,[2]; ICR,≥ 400 mg/kg
same,MIC,"[5]; CAS4, + PMBN",0.06 µg/mL
same,MIC,"[5]; CFL 004 CRCN, + PMBN",8 µg/mL
same,MIC,"[5]; GH12, + PMBN",0.5 µg/mL
same,MIC,"[5]; NCTC 10662, + PMBN",≤ 0.03 µg/mL
same,MIC,"[5]; NCTC 12903, + PMBN",≤ 0.03 µg/mL
same,MIC,"[5]; NCTC 13359, + PMBN",0.06 µg/mL
same,MIC,"[5]; PAO1 ΔmexB, + PMBN",≤ 0.03 µg/mL
same,MIC,"[5]; Pseudomonas aeruginosa, CAS4, read-out: MIC",8 µg/mL
same,MIC,"[5]; Pseudomonas aeruginosa, GH12, read-out: MIC",> 32 µg/mL
same,MIC,"[5]; Pseudomonas aeruginosa, GH100, read-out: MIC",1 to 4 µg/mL
same,MIC,"[5]; Pseudomonas aeruginosa, NCTC10662, NCTC 10662, read-out: MIC",8 µg/mL
same,MIC,"[5]; Pseudomonas aeruginosa, NCTC12903, NCTC 12903, read-out: MIC",8 µg/mL
same,MIC,"[5]; Pseudomonas aeruginosa, NCTC13359, NCTC 13359, read-out: MIC",4 to 32 µg/mL
same,MIC,"[5]; Pseudomonas aeruginosa, PAO1, PAO1, read-out: MIC",4 to 8 µg/mL
same,MIC,"[5]; Pseudomonas aeruginosa, CFL 004 CRCN, read-out: MIC",> 32 µg/mL
same,MIC50,"[5]; Pseudomonas aeruginosa, in the presence of PMBN, n = 7 strains",0.06 µg/mL
same,bacterial counts in thigh,[6],3.19 log10 CFU/g
same,reduction relative to vehicle,[6]; 50 mg/kg,5.17 log10 CFU/g and > 4 log10 CFU/g
same,B.W.,[3]; [7],25 and 27
same,B.W.,[3]; [8],24 and 25
same,B.W.,[3]; [9],26 and 27
same,B.W.,[3]; [10],24 and 23
same,B.W.,[3]; [11],26 and 22 and 24
same,B.W.,[3]; [12],21 and 20 and 22
